The record followed here is patent US11634417B2 (Array BioPharma Inc., priority 2019, dated 2023).

Where a name gives a salt, the structure may show the parent alone.

One assay addresses T1, full-length SHP2 (Homo sapiens, UniProt Q06124).
T1 construct: 1 nM full-length SHP2 (His6-tagged SHP2(2-527), recombinantly expressed in E. coli and purified in-house); His6; made in house; host or cells: E. coli
T1 sequence (Q06124 2-527): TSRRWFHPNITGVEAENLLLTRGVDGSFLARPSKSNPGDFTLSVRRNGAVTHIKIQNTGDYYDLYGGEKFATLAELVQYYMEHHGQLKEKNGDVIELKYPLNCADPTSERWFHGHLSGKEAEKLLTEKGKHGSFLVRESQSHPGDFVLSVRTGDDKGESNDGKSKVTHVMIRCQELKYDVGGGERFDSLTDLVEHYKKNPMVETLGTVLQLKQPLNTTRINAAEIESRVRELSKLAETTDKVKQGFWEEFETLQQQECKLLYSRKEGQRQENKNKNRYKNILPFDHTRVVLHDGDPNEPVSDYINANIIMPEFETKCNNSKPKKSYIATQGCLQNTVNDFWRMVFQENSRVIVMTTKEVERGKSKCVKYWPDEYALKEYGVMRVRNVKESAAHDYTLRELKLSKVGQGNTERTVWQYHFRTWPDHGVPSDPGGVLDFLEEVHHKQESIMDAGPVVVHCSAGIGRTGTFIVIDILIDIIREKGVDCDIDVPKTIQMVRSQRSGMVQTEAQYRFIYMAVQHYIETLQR
The assay can be described thus: SHP2 enzymatic assay (fluorescence intensity kinetic assay, DiFMUP hydrolysis). In kind it is biochemical. The settings on record: 1 nM His6-tagged SHP2(2-527), 1 μM activating peptide, 50 μM DiFMUP; single assay or mean of multiple assays; read-out: Biological Example 1 IC50. As for the experimental part: A fluorescence intensity kinetic assay was configured for full-length SHP2 that monitors the amount of 6,8-difluoro-7-hydroxy-4-methylcoumarin (“DiFMU”) formed upon hydrolysis of 6,8-difluoro-4-methylumbelliferyl phosphate (“DiFMUP”) by SHP2. […] Low control wells lacked enzyme. The assays were initiated by the addition of a mixture of SHP2 and the activating peptide, and following a 15 second mix on an orbital shaker, were read in kinetic mode for 15 minutes (30 seconds/cycle) at ambient temperature on a PerkinElmer EnVision microplate reader (kEx=355 nm, kEm=460 nm). Initial velocities (slopes of the tangents at t=0) were estimated from exponential fits to the slightly nonlinear progress curves and then were converted to percent of control (“POC”) using the following equation:
[formula] • Where: xmax Average Uninhibited Controls • Xmin Average Background A 4-parameter logistic model was the fit to the POC data for each compound. From that fit, the IC50 was estimated and is defined as the concentration of compound at which the curve crosses 50 POC.

The test system of assay [1] is ERK1/2 (Thr202/Tyr204) phosphorylation in KYSE520 cells. Briefly: Cellular Phospho-p44/42 MAPK (Erk1/2) (Thr202/Tyr204) assay, In-Cell Western. The settings on record: Homo sapiens, KYSE-520; KYSE520 cells, 1 hour incubation, pERK signal normalized to GAPDH; single assay or mean of multiple assays; read-out: Biological Example 2 IC50. In kind it is cell-based. The method, then:
Inhibition of ERK1/2 (Thr202/Tyr204) phosphorylation was determined by the following cellular assay, which comprises incubating cells with a compound for 1 hour and quantifying pERK signal by In-Cell Western on fixed cells and normalizing to GAPDH signal. KYSE520 cells were obtained from DSMZ and grown in RPMI supplemented with 10% fetal bovine serum, penicillin/streptomycin, 2 mM L-alanyl-L-glutamine dipeptide in 0.85% NaCl (Glutamax™), non-essential amino acids, and sodium pyruvate. Cells were plated in 96-well plates at 30,000 cells/well and allowed to attach overnight at 37° C./5% CO2. Cells were treated with compounds prepared as a 10-point, 1:3 dilution series (range: 20 μM-1 nM), with a final DMSO concentration of 0.5%. After 1 hour incubation, cells were fixed in 3.7% formaldehyde in Dulbecco's phosphate-buffered saline (“dPBS”) at room temperature for 20 minutes. Cells were then washed with dPBS and permeabilized in 100% MeOH at room temperature for 10 minutes. Following permeabilization, cells were washed in dPBS and incubated in LI-COR Blocking Buffer (LI-COR Biosciences, Cat #927-40000) for 1 hour or longer. Plates were then incubated with an antibody specific for the MEK-dependent ERK1/2 phosphorylation sites, threonine 202 and tyrosine 204 (Cell Signaling Technologies; Cat #9101), downstream of SHP2 in the MAP kinase signal transduction pathway, as well as GAPDH (Millipore; Cat #MAB374). pErk1/2 (Thr202/Tyr204) antibody was diluted in LI-COR blocking buffer containing 0.05% polysorbate-20 (Tween-20) at 1:250; GAPDH was diluted at 1:2,500. The plates were incubated overnight at 4° C. After washing with PBS/0.05% Tween-20, the cells were incubated with fluorescently-labeled secondary antibodies (Anti-rabbit-Alexa Flour680, Invitrogen Cat #A21109; Anti-mouse-IRDye800CW, Li-cor Bioscieces Cat #926-32210, both at 1:1000 dilution) for 1 hour. Cells were then washed, as above, and analyzed for fluorescence at both 680 nm and 800 nm wavelengths using the Aerius Infrared Imaging System (LI-COR Biosciences, Model 9250). Phosphorylated Erk1/2 ([…]) signal was normalized to GAPDH signal for each well. IC50 values were calculated from the normalized values using a 4-parameter fit in BioAssay software. The reported IC50 in Table 2 may be from a single assay or the mean of multiple assays.

Turning to `Cc1ccc2c(n1)CC1(CCN(c3ncc(Sc4ccnc(N)c4Cl)nn3)CC1)[C@@H]2N` [Example 62], the half-inhibitory concentration (IC50) (as a rule, the midpoint of a concentration-inhibition curve) at full-length SHP2 amounted to 39 nM; in assay [1], 6 nM.

With `N[C@@H]1c2ccccc2CC12CCN(c1ncc(Sc3ccnc4c3C(F)(F)C(=O)N4)nn1)CC2` [Example 25, (S)-4-((3-(1-amino-1,3-dihydrospiro[indene-2,4′-piperidin]-1′-yl)-1,2,4-triazin-6-yl)thio)-3,3-difluoro-1,3-dihydro-2H-pyrrolo[2,3-b]pyridin-2-one], the IC50 at full-length SHP2 came to 26 nM; in assay [1], 2 nM.

For the molecule `CNc1nccc(Sc2cnc(N3CCC4(CC3)Cc3ccccc3[C@H]4N)nn2)c1Cl` [Example 53, (S)-1′-(6-((3-chloro-2-(methylamino)pyridin-4-yl)thio)-1,2,4-triazin-3-yl)-1,3-dihydrospiro[indene-2,4′-piperidin]-1-amine], the results for the IC50 (on full-length SHP2; in assay [1]) were 46 nM and 4 nM, respectively.

Take `Cc1ccc2c(c1)CC1(CCN(c3ncc(Sc4ccnc(N)c4Cl)nn3)CC1)[C@H]2N` [Example 59, (R)-1′-(6-((2-amino-3-chloropyridin-4-yl)thio)-1,2,4-triazin-3-yl)-5-methyl-1,3-dihydrospiro[indene-2,4′-piperidin]-1-amine]: the results for the IC50 (at full-length SHP2; in assay [1]) were 118 nM and 170 nM, respectively.

In the case of `N[C@@H]1c2ccccc2CC12CCN(c1ncc(-c3ccccc3)nn1)CC2` [Example 79, (S)-1′-(6-phenyl-1,2,4-triazin-3-yl)-1,3-dihydrospiro[indene-2,4′-piperidin]-1-amine], the IC50 amounted to 84 nM at full-length SHP2 and 697 nM in assay [1].

In the case of `N[C@@H]1c2ccccc2CC12CCN(c1ncc(Sc3c[nH]c4ccccc34)nn1)CC2` [Example 69, (S)-1′-(6-((1H-indol-3-yl)thio)-1,2,4-triazin-3-yl)-1,3-dihydrospiro[indene-2,4′-piperidin]-1-amine], the results for the IC50 (at full-length SHP2; in assay [1]) were 19 nM and 170 nM, respectively.

Turning to `COc1cnc2c(c1)[C@@H](N)C1(CCN(c3ncc(Sc4ccnc(N)c4Cl)nn3)CC1)C2` (single isomer, unassigned) [Example 44], the values for the half-maximal inhibitory concentration (IC50) (at full-length SHP2; in assay [1]) were 37 nM and 4 nM, respectively.

`Cc1nccc(Sc2cnc(N3CCC4(CC3)CO[C@@H](C)[C@H]4N)nn2)c1Cl` [Example 14, (3S,4S)-8-(6-((3-chloro-2-methylpyridin-4-yl)thio)-1,2,4-triazin-3-yl)-3-methyl-2-oxa-8-azaspiro[4.5]decan-4-amine]: the 50% inhibitory concentration (IC50) stood at 53 nM on full-length SHP2 and 61 nM in assay [1].

As to `COc1cc2c(cc1Cl)[C@H](N)C1(CCN(c3ncc(Sc4ccnc(N)c4Cl)nn3)CC1)C2` [Example 63, (R)-1′-(6-((2-amino-3-chloropyridin-4-yl)thio)-1,2,4-triazin-3-yl)-6-chloro-5-methoxy-1,3-dihydrospiro[indene-2,4′-piperidin]-1-amine], the IC50 at full-length SHP2 is 254 nM; in assay [1] it was 665 nM.

For `Nc1nccc(Sc2cnc(N3CCC4(CC3)Oc3ncccc3[C@H]4N)nn2)c1Cl` [Example 77], the IC50 at full-length SHP2 is 74 nM; in assay [1] it was 92 nM.

For `Nc1nccc(Sc2cnc(N3CCC4(CC3)Cc3ncccc3[C@@H]4N)nn2)c1Cl` [Example 16, (R)-1′-(6-((2-amino-3-chloropyridin-4-yl)thio)-1,2,4-triazin-3-yl)-5,7-dihydrospiro[cyclopenta[b]pyridine-6,4′-piperidin]-5-amine trihydrochloride], the IC50 is 175 nM at full-length SHP2 and 49 nM in assay [1].

On to `CC1(N)CCCN(c2ncc(Sc3ccnc(N)c3Cl)nn2)CC1` (stereo not shown) [Example 10, 1-(6-((2-amino-3-chloropyridin-4-yl)thio)-1,2,4-triazin-3-yl)-4-methylazepan-4-amine], for which the IC50 on full-length SHP2 came out at 551 nM; in assay [1], 687 nM.

As to `N[C@@H]1c2cccnc2CC12CCN(c1ncc(Sc3cccc4c3CC4)nn1)CC2` [Example 38, (S)-1′-(6-(bicyclo[4.2.0]octa-1(6),2,4-trien-2-ylthio)-1,2,4-triazin-3-yl)-5,7-dihydrospiro[cyclopenta[b]pyridine-6,4′-piperidin]-5-amine], the IC50 at full-length SHP2 turned out to be 13 nM; in assay [1], 41 nM.

As to `Nc1nccc(Sc2cnc(N3[C@H]4CC[C@H]3CC(N)C4)nn2)c1Cl` (stereo partly drawn) [Example 3, (1R,3s,5S)-8-(6-((2-amino-3-chloropyridin-4-yl)thio)-1,2,4-triazin-3-yl)-8-azabicyclo[3.2.1]octan-3-amine], the values for the IC50 (at full-length SHP2; in assay [1]) were 626 nM and 1290 nM, respectively.

Take `N[C@@H]1c2ccccc2CC12CCN(c1ncc(Sc3c[nH]c4ncccc34)nn1)CC2` [Example 26, (S)-1′-(6-((1H-pyrrolo[2,3-b]pyridin-3-yl)thio)-1,2,4-triazin-3-yl)-1,3-dihydrospiro[indene-2,4′-piperidin]-1-amine]: the IC50 on full-length SHP2 came to 49 nM; in assay [1], 120 nM.

Consider `Nc1nccc(Sc2cnc(N3CCC4(CC3)Cc3nc(Cl)sc3C4N)nn2)c1Cl` (stereo not shown) [Example 76, 1′-(6-((2-amino-3-chloropyridin-4-yl)thio)-1,2,4-triazin-3-yl)-2-chloro-4,6-dihydrospiro[cyclopenta[d]thiazole-5,4′-piperidin]-6-amine], for which the IC50 on full-length SHP2 was found to be 41 nM; in assay [1], 4 nM.

As for `Cc1nc(N2CCC3(CC2)CO[C@@H](C)[C@H]3N)nnc1Sc1ccnc(N)c1Cl` [Example 4, (3S,4S)-8-(6-((2-amino-3-chloropyridin-4-yl)thio)-5-methyl-1,2,4-triazin-3-yl)-3-methyl-2-oxa-8-azaspiro[4.5]decan-4-amine], the half-inhibitory concentration (IC50) at full-length SHP2 stood at 114 nM; in assay [1], 519 nM.

Consider `Nc1nccc(Sc2cnc(N3CCC4(CC3)Cc3c(Cl)cccc3[C@H]4N)nn2)c1Cl` [Example 35, (S)-1′-(6-((2-amino-3-chloropyridin-4-yl)thio)-1,2,4-triazin-3-yl)-4-chloro-1,3-dihydrospiro[indene-2,4′-piperidin]-1-amine], for which the IC50 on full-length SHP2 was found to be 26 nM; in assay [1] it was 9 nM.

In the case of `C[C@@H]1OCC2(CCN(c3ncc(-c4cccc(Cl)c4Cl)nn3)CC2)[C@@H]1N` [Example 2, (3S,4S)-8-(6-(2,3-dichlorophenyl)-1,2,4-triazin-3-yl)-3-methyl-2-oxa-8-azaspiro[4.5]decan-4-amine], the IC50 at full-length SHP2 is 76 nM; in assay [1], 2780 nM.

Regarding `Nc1c(Cl)c(Sc2cnc(N3CCC4(CC3)Cc3ccccc3[C@H]4N)nn2)cc[n+]1[O-]` [Example 34, (S)-2-amino-4-((3-(1-amino-1,3-dihydrospiro[indene-2,4′-piperidin]-1′-yl)-1,2,4-triazin-6-yl)thio)-3-chloropyridine 1-oxide], the IC50 at full-length SHP2 was 79 nM; in assay [1] it was 9 nM.
